# Assay results published in ChEMBL document CHEMBL1201862, “PubChem BioAssay data set” (2004).
# Calls of active or inactive are those of the source.
# Columns and labels:
# [1] = cytotoxicity toward NIH3T3 fibroblasts, dose response, counter-screen, cell-based, ATP luminescence, mouse fibroblasts (AID 2010); type: functional;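 further: cells exposed to compound for about 90 hours before reading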
# [2] = inhibitors of intracellular T. cruzi replication, confirmation, NIH3T3 host cells, beta-gal luminescence (AID 2044); type: functional, cell-based;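 further: intracellular parasites grown in NIH/3T3 mouse fibroblasts as host cells; luminescent beta-galactosidase reporter signal from transgenic T. cruzi replicating inside host cells; inhibitors lower the luminescence signal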
# Cytochrome P450 3A4 = Cytochrome P450 3A4 (Homo sapiens, UniProt P08684);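 further: CYP3A4 tested as one member of a cytochrome P450 panel screen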
# [3] = biological target: T1, Rac GTPase-activating protein 1 (Homo sapiens, UniProt Q9H0H5); experiment: MgcRacGAP GTPase-activating activity inhibitors, confirmation, biochemical, ADP Hunter fluorescence, primary and confirmatory (AID 624330); type: functional
# T1 sequence (Q9H0H5 whole entry): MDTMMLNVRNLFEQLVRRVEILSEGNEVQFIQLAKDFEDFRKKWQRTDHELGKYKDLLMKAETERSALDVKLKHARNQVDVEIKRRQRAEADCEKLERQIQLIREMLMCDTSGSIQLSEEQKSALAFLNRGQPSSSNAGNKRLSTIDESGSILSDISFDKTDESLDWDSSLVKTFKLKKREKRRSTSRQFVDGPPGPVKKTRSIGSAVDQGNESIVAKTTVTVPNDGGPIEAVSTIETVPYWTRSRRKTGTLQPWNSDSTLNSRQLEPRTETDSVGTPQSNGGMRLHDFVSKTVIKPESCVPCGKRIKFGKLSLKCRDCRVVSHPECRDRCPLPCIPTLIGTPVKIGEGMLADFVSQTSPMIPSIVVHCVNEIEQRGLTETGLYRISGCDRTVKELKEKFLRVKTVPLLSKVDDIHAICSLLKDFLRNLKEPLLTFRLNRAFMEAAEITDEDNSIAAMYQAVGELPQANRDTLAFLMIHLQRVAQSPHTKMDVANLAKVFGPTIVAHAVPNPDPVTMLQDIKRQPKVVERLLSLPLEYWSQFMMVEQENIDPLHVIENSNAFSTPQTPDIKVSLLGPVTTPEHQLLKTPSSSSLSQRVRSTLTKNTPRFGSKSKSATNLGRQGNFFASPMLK
# [4] = HEp-2 cell cytotoxicity, dose response, cytotoxicity control for RSV inhibitor project, HTS (AID 2410); type: functional; conditions: human respiratory syncytial virus
# Cytochrome P450 2C19 = Cytochrome P450 2C19 (Homo sapiens, UniProt P33261); experiment: Cytochrome panel assay with activity outcomes. Panel member name: p450-cyp2c19 Compounds with AC50 equal or less than 10 uM are considered active; type: functional
# Cytochrome P450 2C9 = Cytochrome P450 2C9 (Homo sapiens, UniProt P11712)
# [5] = system: Streptococcus sp. 'group A'; experiment: growth inhibition of control SK(-) GAS strain, dose response, counter-screen for streptokinase expression inhibitor project, luminescence, kanamycin, BacTiterGlo, confirmation (AID 1900); type: functional, organism-based
# Streptococcus = experiment: Group A Streptococcus viability loss, dose response, counter-screen for streptokinase expression inhibitor project, luminescence, BacTiterGlo (AID 1915); type: functional, organism-based;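 further: potency for reduction of bacterial viability or growth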
# Protein RecA = biological target: T2, Protein RecA (Mycobacterium tuberculosis, UniProt P9WHJ3); experiment: Fluorescence Cell-Free Homogeneous Dose Retest to Identify Inhibitors of RecA-Intein Splicing Activity. [Related pubchem assays (depositor defined):AID2097, AID2223, AID489010, AID492950]; type: functional
# T2 sequence (P9WHJ3 whole entry): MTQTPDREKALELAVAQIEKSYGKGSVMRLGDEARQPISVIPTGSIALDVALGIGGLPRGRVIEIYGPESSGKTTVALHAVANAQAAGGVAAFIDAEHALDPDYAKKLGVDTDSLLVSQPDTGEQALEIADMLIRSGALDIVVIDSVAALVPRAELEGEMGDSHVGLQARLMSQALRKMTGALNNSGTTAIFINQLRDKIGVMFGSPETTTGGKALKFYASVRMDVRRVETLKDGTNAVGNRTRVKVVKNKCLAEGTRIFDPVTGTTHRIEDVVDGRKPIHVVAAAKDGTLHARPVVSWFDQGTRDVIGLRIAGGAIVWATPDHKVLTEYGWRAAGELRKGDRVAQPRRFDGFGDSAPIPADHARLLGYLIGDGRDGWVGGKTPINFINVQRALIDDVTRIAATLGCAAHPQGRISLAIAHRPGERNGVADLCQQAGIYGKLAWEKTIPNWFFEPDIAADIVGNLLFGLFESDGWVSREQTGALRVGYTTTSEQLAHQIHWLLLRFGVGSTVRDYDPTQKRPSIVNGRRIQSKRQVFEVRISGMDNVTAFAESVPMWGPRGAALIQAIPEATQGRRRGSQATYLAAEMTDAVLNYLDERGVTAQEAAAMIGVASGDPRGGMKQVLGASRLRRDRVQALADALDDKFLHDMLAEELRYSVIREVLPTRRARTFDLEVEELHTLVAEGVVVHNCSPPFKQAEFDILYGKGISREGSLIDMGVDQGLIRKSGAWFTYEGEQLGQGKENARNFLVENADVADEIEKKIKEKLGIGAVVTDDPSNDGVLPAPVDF
# Sequence of Cytochrome P450 3A4 (P08684 whole entry): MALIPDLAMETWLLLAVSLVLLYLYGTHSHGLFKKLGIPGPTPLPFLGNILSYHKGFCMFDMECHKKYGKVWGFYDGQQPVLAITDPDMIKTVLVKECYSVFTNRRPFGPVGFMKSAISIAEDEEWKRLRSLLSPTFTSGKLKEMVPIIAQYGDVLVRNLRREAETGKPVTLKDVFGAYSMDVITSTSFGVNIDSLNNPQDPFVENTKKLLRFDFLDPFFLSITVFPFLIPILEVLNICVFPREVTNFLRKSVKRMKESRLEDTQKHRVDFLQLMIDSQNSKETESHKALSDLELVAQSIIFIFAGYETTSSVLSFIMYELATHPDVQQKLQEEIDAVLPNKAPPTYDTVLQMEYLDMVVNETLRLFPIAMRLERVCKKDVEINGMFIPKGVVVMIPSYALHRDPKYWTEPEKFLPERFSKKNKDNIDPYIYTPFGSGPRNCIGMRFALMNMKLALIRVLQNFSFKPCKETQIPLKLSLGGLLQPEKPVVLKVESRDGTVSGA
# Sequence of Cytochrome P450 2C19 (P33261 whole entry): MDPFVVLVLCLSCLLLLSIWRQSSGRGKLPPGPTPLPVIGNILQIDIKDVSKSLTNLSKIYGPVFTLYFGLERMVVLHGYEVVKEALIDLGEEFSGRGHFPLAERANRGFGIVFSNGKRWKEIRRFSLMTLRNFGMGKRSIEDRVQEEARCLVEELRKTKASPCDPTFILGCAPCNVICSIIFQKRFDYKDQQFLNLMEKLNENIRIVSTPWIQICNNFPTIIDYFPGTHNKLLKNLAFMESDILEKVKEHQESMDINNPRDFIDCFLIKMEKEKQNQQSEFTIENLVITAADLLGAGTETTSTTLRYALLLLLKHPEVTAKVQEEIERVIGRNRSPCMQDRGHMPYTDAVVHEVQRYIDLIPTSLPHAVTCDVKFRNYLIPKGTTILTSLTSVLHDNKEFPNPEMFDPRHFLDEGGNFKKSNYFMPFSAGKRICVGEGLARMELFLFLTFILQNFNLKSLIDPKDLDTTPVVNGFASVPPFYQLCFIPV
# Sequence of Cytochrome P450 2C9 (P11712 whole entry): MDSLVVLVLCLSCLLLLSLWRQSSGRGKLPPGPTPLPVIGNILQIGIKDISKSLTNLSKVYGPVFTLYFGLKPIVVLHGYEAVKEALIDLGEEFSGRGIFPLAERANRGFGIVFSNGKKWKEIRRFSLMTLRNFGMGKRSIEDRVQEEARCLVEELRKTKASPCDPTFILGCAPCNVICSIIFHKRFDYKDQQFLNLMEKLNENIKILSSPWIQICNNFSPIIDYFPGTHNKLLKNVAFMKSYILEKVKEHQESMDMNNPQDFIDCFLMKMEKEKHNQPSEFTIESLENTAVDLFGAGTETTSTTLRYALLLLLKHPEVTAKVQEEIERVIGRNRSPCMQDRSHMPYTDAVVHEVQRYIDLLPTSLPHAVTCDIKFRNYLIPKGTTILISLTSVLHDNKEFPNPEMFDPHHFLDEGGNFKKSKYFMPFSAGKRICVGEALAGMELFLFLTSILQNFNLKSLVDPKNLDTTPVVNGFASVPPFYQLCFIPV
smiles,measurement,setting,value
CCc1cccc(Nc2c([N+](=O)[O-])nn(-c3ccc4c(c3)OCCO4)[n+]2[O-])c1,EC50,[1],> 60 µM (inconclusive)
same,EC50,[2],0.272 µM (active)
Nc1ncnc2c1ncn2[C@@H]1O[C@@H](C(=O)NC2CC2)[C@H](O)[C@@H]1O,AC50,Cytochrome P450 3A4,1 µM (inconclusive)
COc1ccccc1N1CCN(CC(=O)NCC2CCCO2)CC1 (stereo not drawn),IC50,[3],51.9 µM (active)
O=C1[C@H]2[C@@H](c3ccc(F)cc3)N3C(=O)N(c4ccc(C(F)(F)F)cc4)C(=O)[C@@]3(Cc3ccccc3)[C@H]2C(=O)N1C1CCCCC1,CC50,[4],> 50 µM (active)
C/C(CCN1CCc2nc(-c3ccccc3)c(-c3ccccc3)cc2C1)=N\OC[C@@H](O)[C@@H]1O[C@@H]2OC(C)(C)O[C@@H]2[C@H]1O,AC50,Cytochrome P450 3A4,3.98 µM (inconclusive)
CCCC(=O)Nc1nc(C(=O)OCC)cs1,AC50,Cytochrome P450 2C19; read-out: AC50,39.8 µM (inconclusive)
COC(=O)C(O)(c1c(C)[nH]c2ccccc12)C(F)(F)F (stereo not drawn),AC50,Cytochrome P450 2C9,3.16 µM (inconclusive)
same,AC50,Cytochrome P450 3A4,22.4 µM (inconclusive)
Cc1[nH]nc(-c2ccc(OCc3cnn(-c4ccccc4)c3)cc2O)c1Oc1ccccc1F,AC50,Cytochrome P450 3A4,8.91 µM (inconclusive)
CCC(C#CCN1CCCCC1)(CC)OCCC#N,AC50,Cytochrome P450 2C9,0.355 µM (inconclusive)
Cc1ccc(-c2csc(NCCc3nc4cc(Cl)c(Cl)cc4n3CCCO)n2)cc1,CC50,[4],28.9 µM (active)
COc1ccc(N(C(=O)Cn2nnc3ccccc32)C2(C(=O)NC3CCCC3)CCCCC2)cc1,AC50,Cytochrome P450 2C19; read-out: AC50,14.1 µM (inconclusive)
same,AC50,Cytochrome P450 2C9,22.4 µM (inconclusive)
Cc1nn2cc(-c3ccc(N)cc3)nc2s1,IC50,[3],110 µM (active)
O=C(CN1CCN(C(c2ccccc2)c2ccccc2)CC1)N1CCN(c2ccccc2)CC1,CC50,[4],23.9 µM (active)
CCN(CC)S(=O)(=O)c1ccc2oc(C(=O)NC3CCCc4ccccc43)c(C)c2c1 (stereo not drawn),EC50,[1],> 60 µM (not active)
same,EC50,[2],2.1 µM (active)
CNc1nc(-c2ccc3c(c2)CCN3C(=O)c2ccccc2C)cs1,CC50,[4],14.9 µM (active)
O=C(COc1ccccc1)Nc1ccc2[nH]c(O)nc2c1,CC50,[4],26 µM (active)
Cc1nnc(SCC2=C(C(=O)O)N3C(=O)C(NC(=O)C(C)n4nc(C(F)(F)F)cc4C)C3SC2)s1 (stereo not drawn),EC50,[5],0.201 µM (active)
same,EC50,Streptococcus,0.421 µM (active)
Cc1ccc(O)c(C(=O)c2cc(C(=O)NCCc3ccccc3)c(=O)n(CCc3ccccc3)c2)c1,EC50,[1],> 30 µM (not active)
same,EC50,[2],2.02 µM (active)
O=C(COC(=O)c1c2ccccc2cc2ccccc12)NCC(F)(F)F,CC50,[4],23.6 µM (active)
Cc1ccc(CN2CCN(CC(=O)N=Nc3c(O)[nH]c4ccccc34)CC2)cc1,EC50,[1],> 60 µM (not active)
same,EC50,[2],1.08 µM (active)
COc1cc(/C=N/N=C2/SCC(=O)N2c2ccc(O)cc2)ccc1O,IC50,[3],65 µM (active)
COc1ccc(CCNCc2ccccc2)cc1,IC50,[3],134 µM (active)
OC1CNc2c(ccc3ccccc23)C1 (stereo not drawn),IC50,[3],18.4 µM (active)
C/C(CC(=O)NC1CCCC1)=N\NC(=O)Cc1cccs1,AC50,Cytochrome P450 3A4,12.6 µM (inconclusive)
Cc1nc2cnc(Oc3cccc(Cl)c3)nc2n(CCC#N)c1=O,AC50,Cytochrome P450 2C9,39.8 µM (inconclusive)
CS(=O)(=O)N1CCN(c2ccc([N+](=O)[O-])c(NCc3ccccc3)c2)CC1,AC50,Cytochrome P450 2C19; read-out: AC50,31.6 µM (inconclusive)
same,AC50,Cytochrome P450 3A4,31.6 µM (inconclusive)
Cc1cc(C)c2c(CN3CCN(Cc4ccc5c(c4)OCO5)CC3)cc(=O)oc2c1,CC50,[4],16.8 µM (active)
O=C(O)[C@H](Cc1cc(I)c(O)c(I)c1)C1CCCCC1,AC50,Cytochrome P450 2C19; read-out: AC50,2 µM (inconclusive)
same,AC50,Cytochrome P450 2C9,3.16 µM (inconclusive)
COc1cc(CN2CCN(Cc3ccc(C(F)(F)F)cc3)CC2)cc(OC)c1OC,IC50,[3],122 µM (active)
CCN1CCN(c2ccc(/N=C/c3ccc(O)cc3O)cc2)CC1,IC50,[3],28 µM (active)
COc1ccc(NC(=O)c2nc[nH]n2)cc1,AC50,Cytochrome P450 2C19; read-out: AC50,31.6 µM (inconclusive)
same,AC50,Cytochrome P450 2C9,0.708 µM (inconclusive)
COc1ccc(NC(S)=NC(=NCS(=O)(=O)c2ccccc2)c2ccccc2)cc1,CC50,[4],24.6 µM (active)
C=CCOC(=O)C1=C(C)NC(=O)NC1c1ccc(OC(=O)c2ccco2)c(OC)c1 (stereo not drawn),EC50,Protein RecA,18 µM (active)
CCN(C(=O)CSc1nnc(Cn2nnc3ccccc32)o1)c1nc(-c2ccccc2)cs1,CC50,[4],26.4 µM (active)
Cn1c(O)c(C(c2ccccn2)c2c(O)n(C)c(=S)n(C)c2=O)c(=O)n(C)c1=S,AC50,Cytochrome P450 2C9,1.58 µM (inconclusive)
COCCn1c(=O)c(-c2cccs2)nc2cnc(OC)nc21,AC50,Cytochrome P450 2C19; read-out: AC50,20 µM (inconclusive)
same,AC50,Cytochrome P450 2C9,39.8 µM (inconclusive)
COc1cccc([C@@H]2Oc3ccc(OC)cc3/C(=N/O[C@@H](C)CN3CCCc4nc(C)c(C)cc43)[C@@H]2O)c1,AC50,Cytochrome P450 2C19; read-out: AC50,0.251 µM (inconclusive)
same,AC50,Cytochrome P450 2C9,2 µM (inconclusive)
Oc1ccc(Br)cc1Cn1nnc2ccccc21,CC50,[4],30 µM (active)
COc1cc(/C=C/CN2CCC(CO)(CC3CCCCO3)CC2)ccc1O (stereo not drawn),IC50,[3],91.2 µM (active)
COc1ccc(NC(=O)CSc2nc(-c3ccc(C)cc3)cc(C(F)(F)F)c2C#N)cc1,AC50,Cytochrome P450 2C19; read-out: AC50,20 µM (inconclusive)
COc1ncc2nc(CCc3ccccc3)c(=O)n(C3CC3)c2n1,AC50,Cytochrome P450 3A4,31.6 µM (inconclusive)
CCOC(=O)c1cnc2cc(-c3ccc(C(C)(C)C)cc3)nn2c1N,AC50,Cytochrome P450 2C9,3.16 µM (inconclusive)
O=C(NCc1ccco1)c1nc(O)c2nnn(Cc3cccc(Cl)c3)c2n1,AC50,Cytochrome P450 2C9,15.8 µM (inconclusive)
COc1ccccc1CNC(=O)C[C@@H]1C[C@H]2c3cc(N(C)C)ccc3O[C@H]2[C@H](CO)O1,IC50,[3],153 µM (active)
CCCc1nc2c(c(=O)c3ccccc3n2C)c(=O)n1-c1cc(C)cc(C)c1,CC50,[4],> 50 µM (active)
COc1ccc(C(=O)CC(=O)C(=O)Nc2ccccc2C(F)(F)F)cc1,EC50,[5],3.52 µM (active)
same,EC50,Streptococcus,8.59 µM (active)
Cc1ccc(-n2cnc3cc(NCc4cccs4)ccc32)cc1,CC50,[4],25.3 µM (active)
COc1ccc2c(c1OC)C(=O)OC2Nc1ncccc1C (stereo not drawn),AC50,Cytochrome P450 2C19; read-out: AC50,39.8 µM (inconclusive)
COCC(C)n1c(C)cc(C(=O)COC(=O)c2c(C)nn(-c3ccccc3)c2C)c1C (stereo not drawn),CC50,[4],29.2 µM (active)
COc1ccc(NC2CCCN(C(=O)c3oc(C)cc3C)C2)cc1OC (stereo not drawn),IC50,[3],159 µM (active)
O=C(CN1CCN(c2nc(-c3ccccc3)cs2)CC1)NCc1ccc2c(c1)OCO2,CC50,[4],11 µM (active)
Cc1ccc2nc(NC(=O)COC(=O)CSc3nc(C)cc(C)n3)sc2c1,AC50,Cytochrome P450 2C19; read-out: AC50,5.01 µM (inconclusive)
N=C(N)CCNC(=O)[C@@H]1CCC(N)=N1.O=S(=O)(O)O,AC50,Cytochrome P450 2C19,inconclusive
O=C(CCC(=O)Nc1ccc(F)cc1)N/N=C/c1ccc(O)cc1,IC50,[3],62.8 µM (active)
COc1ccc(CSCCN=C(S)Nc2ccccc2)cc1Cl,EC50,[5],18.5 µM (active)
same,EC50,Streptococcus,> 150 µM (not active)
Cc1ccc(S(=O)(=O)Nc2ccc(NC(=O)CN3CCCCC3)c(Cl)c2)cc1,CC50,[4],24.8 µM (active)
COCCNc1nc(-c2ccc(C(=O)N(C)C)cc2)nc2ccccc12,AC50,Cytochrome P450 3A4,15.8 µM (inconclusive)
COc1ccc(C(=O)CN2C(=O)NC(C)(c3ccccc3)C2=O)cc1OC (stereo not drawn),AC50,Cytochrome P450 2C19; read-out: AC50,39.8 µM (inconclusive)
same,AC50,Cytochrome P450 3A4,4.47 µM (inconclusive)
